The results in this text go back to ChEMBL document CHEMBL5584338, “Design, Synthesis, and Biological Evaluation of 5-Amino-4-fluoro-1H-benzo[d]imidazole-6-carboxamide Derivatives as Novel and Potential MEK/RAF Complex Inhibitors Based on the "Clamp" Strategy” (J Med Chem, 2024).

pIC50: −log10 of the molar value.

For one assay, the system named is MIA PaCa-2. As to the kind of experiment: Antiproliferative activity against human MIA PaCa-2 cells harboring KRAS G12C mutant at 0.1 uM incubated for 72 hrs by CCK8 assay relative to control. It counts as functional.
Details: not given
(In general: Tetrazolium assays rely on reduction of a dye to a coloured formazan, in cell work by metabolically active cells.)
As to `CCNS(=O)(=O)Nc1cccc(Cn2cnc3c(F)c(Nc4ccc(Br)cc4F)c(C(=O)NOCCO)cc32)c1F`, the inhibition (commonly the change of the read-out against control, counted positive when it falls) at 0.1 µM was 22.8%.

With `CNS(=O)(=O)Nc1cccc(Cn2cnc3c(F)c(Nc4ccc(C5CCCC5)cc4F)c(C(=O)NOCCO)cc32)c1F`, the inhibition at 0.1 µM was found to be 12.1%.

For the compound `CNS(=O)(=O)Nc1cccc(Cn2cnc3c(F)c(Nc4ccc(Br)cc4F)c(C(=O)NOCCO)cc32)c1Cl`, the inhibition at 0.1 µM turned out to be 28.4%.

In the case of `CNS(=O)(=O)Nc1cccc(Cn2cnc3c(F)c(F)c(C(=O)NOCCO)cc32)c1F`, the inhibition at 0.1 µM was found to be 24.7%.

For the compound `CNS(=O)(=O)Nc1cccc(Cn2cnc3c(F)c(Nc4ccc(C5CCC5)cc4F)c(C(=O)NOCCO)cc32)c1F`, the inhibition at 0.1 µM came out at 52.8%.

Regarding `CNS(=O)(=O)Nc1cccc(Cn2cnc3c(F)c(Nc4ccc(C5CC5)cc4F)c(C(=O)NOCCO)cc32)c1Cl`, the inhibition at 0.1 µM came to 62.6%.

On to `O=C(NOCCO)c1cc2c(ncn2Cc2cccc(NC(=O)C3CCC3)c2)c(F)c1Nc1ccc(C2CC2)cc1F`, for which the inhibition at 0.1 µM turned out to be 38.9%.

On to `CNS(=O)(=O)N1CCC(Cn2cnc3c(F)c(Nc4ccc(C5CC5)cc4F)c(C(=O)NOCCO)cc32)C1` (stereo unspecified), for which the inhibition at 0.1 µM was -13.4%.

As for `CS(=O)(=O)Nc1cccc(Cn2cnc3c(F)c(Nc4ccc(C5CC5)cc4F)c(C(=O)NOCCO)cc32)c1`, the inhibition at 0.1 µM was 50.5%.

`CNS(=O)(=O)Nc1cccc(Cn2cnc3c(F)c(Nc4ccc(I)cc4F)c(C(=O)NOCCO)cc32)c1Cl`: the inhibition at 0.1 µM is 60.8%.

On to `CCNS(=O)(=O)Nc1cccc(Cn2cnc3c(F)c(Nc4ccc(C5CCCC5)cc4F)c(C(=O)NOCCO)cc32)c1F`, for which the inhibition at 0.1 µM amounted to 6.88%.

On to `CCNS(=O)(=O)Nc1ccc(F)c(Cn2cnc3c(F)c(Nc4ccc(C5CC5)cc4F)c(C(=O)NOCCO)cc32)c1`, for which the inhibition at 0.1 µM was -38.8%.

Turning to `CC(C)NS(=O)(=O)Nc1cccc(Cn2cnc3c(F)c(Nc4ccc(C5CC5)cc4F)c(C(=O)NOCCO)cc32)c1`, the inhibition at 0.1 µM is 65.9%.

In a further assay the test system is HCT-116. As to the kind of experiment: Antiproliferative activity against human HCT-116 cells harboring KRAS G13D mutant at 1 uM incubated for 72 hrs by CCK8 assay relative to control. The assay is classed as functional.
Details: not given
`CCNS(=O)(=O)Nc1cccc(Cn2cnc3c(F)c(Nc4ccc(Br)cc4F)c(C(=O)NOCCO)cc32)c1F`: the inhibition at 1 µM turned out to be 65.1%.

Consider `CNS(=O)(=O)Nc1cccc(Cn2cnc3c(F)c(Nc4ccc(C5CCCC5)cc4F)c(C(=O)NOCCO)cc32)c1F`, for which the inhibition at 1 µM came to 24.8%.

As to `CNS(=O)(=O)Nc1cccc(Cn2cnc3c(F)c(Nc4ccc(Br)cc4F)c(C(=O)NOCCO)cc32)c1Cl`, the inhibition at 1 µM is 47.8%.

As to `CNS(=O)(=O)Nc1cccc(Cn2cnc3c(F)c(F)c(C(=O)NOCCO)cc32)c1F`, the inhibition at 1 µM turned out to be 14.8%.

For `CNS(=O)(=O)Nc1cccc(Cn2cnc3c(F)c(Nc4ccc(C5CCC5)cc4F)c(C(=O)NOCCO)cc32)c1F`, the inhibition at 1 µM was found to be 48.5%.

`CNS(=O)(=O)Nc1cccc(Cn2cnc3c(F)c(Nc4ccc(C5CC5)cc4F)c(C(=O)NOCCO)cc32)c1Cl`: the inhibition at 1 µM stood at 55.6%.

As to `O=C(NOCCO)c1cc2c(ncn2Cc2cccc(NC(=O)C3CCC3)c2)c(F)c1Nc1ccc(C2CC2)cc1F`, the inhibition at 1 µM worked out at 25.1%.

As for `CNS(=O)(=O)N1CCC(Cn2cnc3c(F)c(Nc4ccc(C5CC5)cc4F)c(C(=O)NOCCO)cc32)C1` (stereo unspecified), the inhibition at 1 µM was 2.43%.

As for `CS(=O)(=O)Nc1cccc(Cn2cnc3c(F)c(Nc4ccc(C5CC5)cc4F)c(C(=O)NOCCO)cc32)c1`, the inhibition at 1 µM came to 46.2%.

For `CNS(=O)(=O)Nc1cccc(Cn2cnc3c(F)c(Nc4ccc(I)cc4F)c(C(=O)NOCCO)cc32)c1Cl`, the inhibition at 1 µM came to 66.7%.

Take `CCNS(=O)(=O)Nc1cccc(Cn2cnc3c(F)c(Nc4ccc(C5CCCC5)cc4F)c(C(=O)NOCCO)cc32)c1F`: the inhibition at 1 µM was found to be 26.9%.

Regarding `CCNS(=O)(=O)Nc1ccc(F)c(Cn2cnc3c(F)c(Nc4ccc(C5CC5)cc4F)c(C(=O)NOCCO)cc32)c1`, the inhibition at 1 µM was determined as 17.5%.

Regarding `CC(C)NS(=O)(=O)Nc1cccc(Cn2cnc3c(F)c(Nc4ccc(C5CC5)cc4F)c(C(=O)NOCCO)cc32)c1`, the inhibition at 1 µM turned out to be 59.3%.

In a further assay the test system is MIA PaCa-2. In words: Antiproliferative activity against human MIA PaCa-2 cells harboring KRAS G12C mutant incubated for 72 hrs by CCK8 assay. The assay is classed as functional, cell-based. Particulars: MIA PaCa-2, 72 h.
With `CCNS(=O)(=O)Nc1cccc(Cn2cnc3c(F)c(Nc4ccc(Br)cc4F)c(C(=O)NOCCO)cc32)c1F`, the pIC50 (commonly the IC50 on a negative log10 scale, so that one unit is a factor of ten) is 6.44.

The compound `CNS(=O)(=O)Nc1cccc(Cn2cnc3c(F)c(Nc4ccc(C5CCC5)cc4F)c(C(=O)NOCCO)cc32)c1F` had a pIC50 of 6.60. The pIC50 values of the last two compounds are within 0.2 log units of each other.

`CNS(=O)(=O)Nc1cccc(Cn2cnc3c(F)c(Nc4ccc(C5CC5)cc4F)c(C(=O)NOCCO)cc32)c1Cl` had a pIC50 of 6.77.

For `O=C(NOCCO)c1cc2c(ncn2Cc2cccc(NC(=O)C3CCC3)c2)c(F)c1Nc1ccc(C2CC2)cc1F`, the pIC50 is 5.89.

`CS(=O)(=O)Nc1cccc(Cn2cnc3c(F)c(Nc4ccc(C5CC5)cc4F)c(C(=O)NOCCO)cc32)c1` had a pIC50 of 6.86.

Turning to `CNS(=O)(=O)Nc1cccc(Cn2cnc3c(F)c(Nc4ccc(I)cc4F)c(C(=O)NOCCO)cc32)c1Cl`, the pIC50 is 7.22.

Compound `CC(C)NS(=O)(=O)Nc1cccc(Cn2cnc3c(F)c(Nc4ccc(C5CC5)cc4F)c(C(=O)NOCCO)cc32)c1` showed a pIC50 of 6.82.

The subject of the next assay is HCT-116. As to the kind of experiment: Antiproliferative activity against human HCT-116 cells harboring KRAS G13D mutant incubated for 72 hrs by CCK8 assay. It counts as functional, cell-based. Particulars: HCT-116, 72 h.
In turn, `CCNS(=O)(=O)Nc1cccc(Cn2cnc3c(F)c(Nc4ccc(Br)cc4F)c(C(=O)NOCCO)cc32)c1F` had a negative-log IC50 (pIC50) of 6.82.

In turn, `CNS(=O)(=O)Nc1cccc(Cn2cnc3c(F)c(Nc4ccc(C5CCC5)cc4F)c(C(=O)NOCCO)cc32)c1F` gave a pIC50 of 6.05.

For `CNS(=O)(=O)Nc1cccc(Cn2cnc3c(F)c(Nc4ccc(C5CC5)cc4F)c(C(=O)NOCCO)cc32)c1Cl`, the pIC50 was 6.20.

As for `CNS(=O)(=O)Nc1cccc(Cn2cnc3c(F)c(Nc4ccc(I)cc4F)c(C(=O)NOCCO)cc32)c1Cl`, the pIC50 is 6.45.

The compound `CC(C)NS(=O)(=O)Nc1cccc(Cn2cnc3c(F)c(Nc4ccc(C5CC5)cc4F)c(C(=O)NOCCO)cc32)c1` had a pIC50 of 6.88.

Another assay deals with Dual specificity mitogen-activated protein kinase kinase 1 (Homo sapiens, UniProt Q02750). In words: Inhibition of MEK1 (unknown origin) assessed as remaining activity at 0.1 uM relative to control.
Chain of Dual specificity mitogen-activated protein kinase kinase 1 (Q02750 whole entry): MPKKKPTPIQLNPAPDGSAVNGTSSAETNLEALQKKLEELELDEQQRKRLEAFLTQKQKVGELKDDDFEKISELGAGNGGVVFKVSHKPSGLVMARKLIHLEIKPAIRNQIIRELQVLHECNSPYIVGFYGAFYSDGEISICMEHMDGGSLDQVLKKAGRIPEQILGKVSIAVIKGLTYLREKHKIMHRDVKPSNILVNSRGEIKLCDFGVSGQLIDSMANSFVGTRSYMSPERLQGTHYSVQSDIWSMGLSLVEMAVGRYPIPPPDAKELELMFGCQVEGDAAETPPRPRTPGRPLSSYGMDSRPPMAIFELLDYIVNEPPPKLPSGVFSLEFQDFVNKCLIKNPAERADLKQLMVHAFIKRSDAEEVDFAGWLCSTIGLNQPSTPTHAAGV
Details: not given
On to `CCNS(=O)(=O)Nc1cccc(Cn2cnc3c(F)c(Nc4ccc(Br)cc4F)c(C(=O)NOCCO)cc32)c1F`, for which the Activity was determined as 20%.

For `CNS(=O)(=O)Nc1cccc(Cn2cnc3c(F)c(Nc4ccc(C5CCCC5)cc4F)c(C(=O)NOCCO)cc32)c1F`, the Activity is 98%.

In the case of `CNS(=O)(=O)Nc1cccc(Cn2cnc3c(F)c(Nc4ccc(Br)cc4F)c(C(=O)NOCCO)cc32)c1Cl`, the Activity is 15%.

As for `CNS(=O)(=O)Nc1cccc(Cn2cnc3c(F)c(Nc4ccc(C5CCC5)cc4F)c(C(=O)NOCCO)cc32)c1F`, the Activity came out at 76%.

On to `CNS(=O)(=O)Nc1cccc(Cn2cnc3c(F)c(Nc4ccc(C5CC5)cc4F)c(C(=O)NOCCO)cc32)c1Cl`, for which the Activity is 19%.

For `O=C(NOCCO)c1cc2c(ncn2Cc2cccc(NC(=O)C3CCC3)c2)c(F)c1Nc1ccc(C2CC2)cc1F`, the Activity is 76%.

Regarding `CS(=O)(=O)Nc1cccc(Cn2cnc3c(F)c(Nc4ccc(C5CC5)cc4F)c(C(=O)NOCCO)cc32)c1`, the Activity came out at 75%.

For the compound `CNS(=O)(=O)Nc1cccc(Cn2cnc3c(F)c(Nc4ccc(I)cc4F)c(C(=O)NOCCO)cc32)c1Cl`, the Activity is 5%.

Regarding `CC(C)NS(=O)(=O)Nc1cccc(Cn2cnc3c(F)c(Nc4ccc(C5CC5)cc4F)c(C(=O)NOCCO)cc32)c1`, the Activity is 55%.

In the next assay the target is Serine/threonine-protein kinase B-raf (Homo sapiens, UniProt P15056). As to the kind of experiment: Inhibition of BRAF (unknown origin) assessed as remaining activity at 0.1 uM relative to control.
Chain of Serine/threonine-protein kinase B-raf (P15056 whole entry): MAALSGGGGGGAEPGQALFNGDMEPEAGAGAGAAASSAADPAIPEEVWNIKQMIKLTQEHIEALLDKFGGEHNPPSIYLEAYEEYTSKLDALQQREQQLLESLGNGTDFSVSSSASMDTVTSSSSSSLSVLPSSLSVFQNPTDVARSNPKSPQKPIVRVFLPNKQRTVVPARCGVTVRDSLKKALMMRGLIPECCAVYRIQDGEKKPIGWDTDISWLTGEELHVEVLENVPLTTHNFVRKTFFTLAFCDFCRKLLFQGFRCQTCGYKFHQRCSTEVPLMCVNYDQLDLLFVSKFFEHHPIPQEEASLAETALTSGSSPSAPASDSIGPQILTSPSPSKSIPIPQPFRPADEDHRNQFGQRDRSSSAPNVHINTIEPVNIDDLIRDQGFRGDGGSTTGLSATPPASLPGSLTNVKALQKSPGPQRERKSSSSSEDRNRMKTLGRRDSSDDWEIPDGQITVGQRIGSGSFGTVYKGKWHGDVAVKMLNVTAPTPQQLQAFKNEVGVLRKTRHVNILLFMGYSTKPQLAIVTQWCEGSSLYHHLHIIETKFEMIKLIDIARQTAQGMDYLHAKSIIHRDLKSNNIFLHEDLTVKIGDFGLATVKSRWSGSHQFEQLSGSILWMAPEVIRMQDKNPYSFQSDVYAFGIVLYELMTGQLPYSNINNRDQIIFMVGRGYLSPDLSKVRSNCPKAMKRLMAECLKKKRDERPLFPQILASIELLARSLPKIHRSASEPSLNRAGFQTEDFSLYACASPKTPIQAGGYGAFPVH
Details: not given
Consider `CCNS(=O)(=O)Nc1cccc(Cn2cnc3c(F)c(Nc4ccc(Br)cc4F)c(C(=O)NOCCO)cc32)c1F`, for which the Activity was determined as 2%.

As for `CNS(=O)(=O)Nc1cccc(Cn2cnc3c(F)c(Nc4ccc(C5CCCC5)cc4F)c(C(=O)NOCCO)cc32)c1F`, the Activity turned out to be 13%.

In the case of `CNS(=O)(=O)Nc1cccc(Cn2cnc3c(F)c(Nc4ccc(Br)cc4F)c(C(=O)NOCCO)cc32)c1Cl`, the Activity worked out at 3%.

In the case of `CNS(=O)(=O)Nc1cccc(Cn2cnc3c(F)c(Nc4ccc(C5CCC5)cc4F)c(C(=O)NOCCO)cc32)c1F`, the Activity was found to be 5%.

As for `CNS(=O)(=O)Nc1cccc(Cn2cnc3c(F)c(Nc4ccc(C5CC5)cc4F)c(C(=O)NOCCO)cc32)c1Cl`, the Activity came to 3%.

For `O=C(NOCCO)c1cc2c(ncn2Cc2cccc(NC(=O)C3CCC3)c2)c(F)c1Nc1ccc(C2CC2)cc1F`, the Activity was 32%.

As for `CS(=O)(=O)Nc1cccc(Cn2cnc3c(F)c(Nc4ccc(C5CC5)cc4F)c(C(=O)NOCCO)cc32)c1`, the Activity amounted to 6%.

`CNS(=O)(=O)Nc1cccc(Cn2cnc3c(F)c(Nc4ccc(I)cc4F)c(C(=O)NOCCO)cc32)c1Cl`: the Activity came out at 1%.

As for `CC(C)NS(=O)(=O)Nc1cccc(Cn2cnc3c(F)c(Nc4ccc(C5CC5)cc4F)c(C(=O)NOCCO)cc32)c1`, the Activity was 4%.
